Laboratory results published in ChEMBL document CHEMBL3872275, “Synthesis and antiproliferative activity of 2-chlorophenyl carboxamide thienopyridines” (Bioorg Med Chem Lett, 2017).

What was measured:
[1] = Growth inhibition of human HCT116 cells at 10 uM after 48 hrs by SRB assay relative to control; format: functional; conditions: HCT-116, 48 h, values are per cent of control
[2] = Growth inhibition of human MDA-MB-468 cells at 10 uM after 48 hrs by SRB assay relative to control; format: functional; conditions: MDA-MB-468, 48 h, values are per cent of control
[3] = Growth inhibition of human MDA-MB-231 cells at 10 uM after 48 hrs by SRB assay relative to control; format: functional; conditions: MDA-MB-231, 48 h, read-out: GI
[4] = Antiproliferative activity against human HCT116 cells assessed as cell growth at 1 uM after 3 days by thymidine incorporation assay relative to control; format: functional; conditions: HCT-116, 72 h, read-out: Activity
[5] = Antiproliferative activity against human MDA-MB-468 cells assessed as cell growth at 1 uM after 3 days by thymidine incorporation assay relative to control; format: functional; conditions: MDA-MB-468, 72 h, read-out: Activity
[6] = Antiproliferative activity against human MDA-MB-231 cells assessed as cell growth at 1 uM after 3 days by thymidine incorporation assay relative to control; format: functional; conditions: MDA-MB-231, 72 h, read-out: Activity
[7] = Antiproliferative activity against human HCT116 cells after 3 days by thymidine incorporation assay; format: functional, cell-based; conditions: HCT-116, 72 h
[8] = Antiproliferative activity against human MDA-MB-468 cells after 3 days by thymidine incorporation assay; format: functional, cell-based; conditions: MDA-MB-468, 72 h
[9] = Antiproliferative activity against human MDA-MB-231 cells after 3 days by thymidine incorporation assay; format: functional, cell-based; conditions: MDA-MB-231, 72 h
[10] = Antiproliferative activity against human K562 cells after 3 days by thymidine incorporation assay; format: functional, cell-based; conditions: K562, 72 h

SMILES | growth, % of control at 10 µM [1] | growth, % of control at 10 µM [2] | inhibition of growth at 10 µM [3] | growth at 1 µM [4] | growth at 1 µM [5] | growth at 1 µM [6] | IC50 [7] | IC50 [8] | IC50 [9] | IC50 [10]
Nc1c(C(=O)Nc2ccccc2Cl)sc2nc3c(cc12)C(=O)CCC3 | 76% | 25% | 70% | 99% | 94% | 104% |  |  |  | 
Nc1c(C(=O)Nc2ccccc2Cl)sc2nc3c(cc12)CCCCC3 |  |  |  | 94% | 81% | 101% |  |  |  | 
Nc1c(C(=O)Nc2ccccc2Cl)sc2nc3c(cc12)CCCC3 | 107% | 91% | 100% | 94% | 95% | 119% |  |  |  | 
Nc1c(C(=O)Nc2ccccc2Cl)sc2nc3c(cc12)CCCCCC3 |  |  |  | 71% | 100% | 56% |  |  |  | 
O=c1c2sc3nc4c(cc3c2nnn1-c1ccccc1Cl)CCCCC4 |  |  |  | 99% | 90% | 105% |  |  |  | 
O=C1CCCc2nc3sc4c(=O)n(-c5ccccc5Cl)nnc4c3cc21 | 96% | 86% | 94% | 97% | 91% | 97% |  |  |  | 
Cc1nc2sc(C(=O)Nc3ccccc3Cl)c(N)c2cc1C(C)O (stereo not drawn) |  |  |  | 97% | 96% | 108% |  |  |  | 
Nc1c(C(=O)Nc2ccccc2Cl)sc2nc3c(cc12)C(O)CCC3 (stereo not drawn) | 30% | 26% | 58% | 11% | 14% | 30% | 616 nM | 546 nM | 675 nM | 431 nM
O=c1c2sc3nc4c(cc3c2nnn1-c1ccccc1Cl)C(O)CCC4 (stereo not drawn) | 102% | 91% | 86% | 96% | 80% | 91% |  |  |  | 
CC(=O)OC1CCCc2nc3sc4c(=O)n(-c5ccccc5Cl)nnc4c3cc21 (stereo not drawn) |  |  |  | 98% | 93% | 95% |  |  |  | 
O=c1c2sc3nc4c(cc3c2nnn1-c1ccccc1Cl)CCCCCC4 |  |  |  | 90% | 85% | 92% |  |  |  | 
CC(=O)OC1CCCc2nc3sc4c(=O)n(-c5ccccc5Cl)c(C)nc4c3cc21 (stereo not drawn) |  |  |  | 92% | 64% | 82% |  |  |  | 
Nc1c(C(=O)Nc2ccccc2Cl)sc2nc3c(cc12)CCCCCCCC3 |  |  |  | 91% | 78% | 104% |  |  |  | 
Cc1nc2sc3c(=O)n(-c4ccccc4Cl)nnc3c2cc1C(C)O (stereo not drawn) |  |  |  | 100% | 118% | 100% |  |  |  | 
CC(=O)OC1CCCc2nc3sc(C(=O)Nc4ccccc4Cl)c(N)c3cc21 (stereo not drawn) |  |  |  | 3% | 7% | 10% | 184 nM | 181 nM | 201 nM | 192 nM
O=c1c2sc3nc4c(cc3c2nnn1-c1ccccc1Cl)CCCC4 | 88% | 88% | 81% | 99% | 81% | 94% |  |  |  | 
CC(=O)c1cc2c(nc1C)sc1c(=O)n(-c3ccccc3Cl)nnc12 |  |  |  | 98% | 96% | 103% |  |  |  | 
CC(=O)c1cc2c(N)c(C(=O)Nc3ccccc3Cl)sc2nc1C |  |  |  | 87% | 104% | 100% |  |  |  | 
O=c1c2sc3nc4c(cc3c2nnn1-c1ccccc1Cl)CCCCCCCC4 |  |  |  | 97% | 82% | 91% |  |  |  | 
